According to US10798941B2, “Microbiocidal oxadiazole derivatives” (SYNGENTA PARTICIPATIONS AG, priority 2016, dated 2020):

How the values were obtained:
[1] = tested on: Glomerella Lagenarium (Colletotrichum Lagenarium); test: Glomerella lagenarium (Colletotrichum lagenarium) liquid culture / cucumber / preventative (anthracnose); format: cell-based; settings: Colletotrichum orbiculare; 20 ppm in the applied formulation; liquid culture in PDB, 24° C., inhibition of growth measured photometrically 3 to 4 days after application, vs untreated; read-out: disease control
Outline: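 Conidia from cryogenic storage were mixed into potato dextrose broth. This was added to compound diluted from DMSO into 0.025% Tween20, tested at 20 ppm. Plates were incubated in the dark at 24 °C and 96% relative humidity, and growth was read photometrically after 2–7 days as % activity versus untreated check.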

[2] = tested on: Puccinia recondita f. Sp. Tritici; test: Puccinia recondita f. sp. tritici / wheat / leaf disc preventative (brown rust); format: in vivo; settings: foliar, 168 h, 200 ppm in the applied formulation, wheat leaf segments cv. Kanzler, preventative, inoculated 1 day after application, assessed 7 to 9 days after application, vs untreated, read-out: disease control
Outline: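 Preventative leaf-segment test: spray application of diluted formulated compound on wheat cv. Kanzler, spore inoculation after 1 day. Percent control relative to untreated segments rated 7 to 9 days post-application, with incubation at 19° C, 75% relative humidity, 12 h photoperiod.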

[3] = tested on: Puccinia recondita f. Sp. Tritici; test: Puccinia recondita f. sp. tritici / wheat / leaf disc curative (brown rust); format: in vivo; settings: foliar, 144 h, 200 ppm in the applied formulation, wheat leaf segments cv. Kanzler, applied 1 day after inoculation, assessed 6 to 8 days after application, vs untreated, read-out: disease control
Procedure: (§1) Leaf disks or leaf segments of various plant species are cut from plants grown in a greenhouse. The cut leaf disks or segments are placed in multiwell plates (24-well format) onto water agar. The leaf disks are sprayed with a test solution before (preventative) or after (curative) inoculation. Compounds to be tested are prepared as DMSO solutions (max. 10 mg/ml) which are diluted to the appropriate concentration with 0.025% Tween20 just before spraying. The inoculated leaf disks or segments are incubated under defined conditions (temperature, relative humidity, light, etc.) according to the respective test system. A single evaluation of disease level is carried out 3 to 14 days after inoculation, depending on the pathosystem. Percent disease control relative to the untreated check leaf disks or segments is then calculated.
Wheat leaf segments cv. Kanzler are placed on agar in multiwell plates (24-well format). The leaf segments are then inoculated with a spore suspension of the fungus. Plates were stored in darkness at 19° C. and 75% relative humidity. The formulated test compound diluted in water was applied 1 day after inoculation. The leaf segments were incubated at 19° C. and 75% relative humidity under a light regime of 12 hours light/12 hours darkness in a climate cabinet and the activity of a compound was assessed as percent disease control compared to untreated when an appropriate level of disease damage appears in untreated check leaf segments (6 to 8 days after application).
(§2) The following compounds at 200 ppm in the applied formulation give at least 80% disease control in this test when compared to untreated control leaf disks under the same conditions, which show extensive disease development.

Phakopsora pachyrhizi = Phakopsora pachyrhizi / soybean / leaf disc preventative (Asian soybean rust); format: in vivo; settings: foliar, 288 h, 200 ppm in the applied formulation, soybean leaf disks, inoculated one day after application, assessed 12 to 14 days after application, vs untreated, read-out: disease control
Procedure: as §1
Soybean leaf disks are placed on water agar in multiwell plates (24-well format) and sprayed with the formulated test compound diluted in water. One day after application leaf discs are inoculated by spraying a spore suspension on the lower leaf surface. After an incubation period in a climate cabinet of 24-36 hours in darkness at 20° C. and 75% rh leaf disc are kept at 20° C. with 12 h light/day and 75% rh. The activity of a compound is assessed as percent disease control compared to untreated when an appropriate level of disease damage appears in untreated check leaf disks (12 to 14 days after application).
as §2

COC(=O)c1ncnn1Cc1ccc(-c2noc(C(F)(F)F)n2)cc1 [Compound 1.36, methyl 2-[[4-[5-(trifluoromethyl)-1,2,4-oxadiazol-3-yl]phenyl]methyl]-1,2,4-triazole-3-carboxylate]
≥ 80%: inhibition of growth at 20 ppm [1] | pest or weed control at 200 ppm [2] | pest or weed control at 200 ppm [3] | pest or weed control at 200 ppm (Phakopsora pachyrhizi)

N#Cc1ncn(Cc2ccc(-c3noc(C(F)(F)F)n3)cc2)n1 [Compound 1.40, 1-[[4-[5-(trifluoromethyl)-1,2,4-oxadiazol-3-yl]phenyl]methyl]-1,2,4-triazole-3-carbonitrile]
≥ 80%: inhibition of growth at 20 ppm [1] | pest or weed control at 200 ppm [2] | pest or weed control at 200 ppm [3] | pest or weed control at 200 ppm (Phakopsora pachyrhizi)

COc1ccc(C(C)c2ccc(-c3noc(C(F)(F)F)n3)cc2)cn1 (centres unmarked) [Compound 1.42, 3-[4-[1-(6-methoxy-3-pyridyl)ethyl]phenyl]-5-(trifluoromethyl)-1,2,4-oxadiazole]
≥ 80%: inhibition of growth at 20 ppm [1] | pest or weed control at 200 ppm [2] | pest or weed control at 200 ppm [3] | pest or weed control at 200 ppm (Phakopsora pachyrhizi)

COC(=O)c1ncn(Cc2ccc(-c3noc(C(F)(F)F)n3)cc2)c1C(=O)OC [Compound 1.43, dimethyl 1-[[4-[5-(trifluoromethyl)-1,2,4-oxadiazol-3-yl]phenyl]methyl]imidazole-4,5-dicarboxylate]
≥ 80%: inhibition of growth at 20 ppm [1] | pest or weed control at 200 ppm [2] | pest or weed control at 200 ppm [3] | pest or weed control at 200 ppm (Phakopsora pachyrhizi)

FC(F)(F)c1nc(-c2ccc(Cn3ccnc3Br)cc2)no1 [Compound 1.49, 3-[4-[(2-bromoimidazol-1-yl)methyl]phenyl]-5-(trifluoromethyl)-1,2,4-oxadiazole]
≥ 80%: inhibition of growth at 20 ppm [1] | pest or weed control at 200 ppm [2] | pest or weed control at 200 ppm [3] | pest or weed control at 200 ppm (Phakopsora pachyrhizi)

CC(C)c1nccn1Cc1ccc(-c2noc(C(F)(F)F)n2)cc1 [Compound 1.56, 3-[4-[(2-isopropylimidazol-1-yl)methyl]phenyl]-5-(trifluoromethyl)-1,2,4-oxadiazole]
≥ 80%: inhibition of growth at 20 ppm [1] | pest or weed control at 200 ppm [2] | pest or weed control at 200 ppm [3] | pest or weed control at 200 ppm (Phakopsora pachyrhizi)

FC(F)(F)c1nc(-c2ccc(Cn3cnc(Br)c3)cc2)no1 [Compound 1.79, 3-[4-[(4-bromoimidazol-1-yl)methyl]phenyl]-5-(trifluoromethyl)-1,2,4-oxadiazole]
≥ 80%: inhibition of growth at 20 ppm [1] | pest or weed control at 200 ppm [2] | pest or weed control at 200 ppm [3] | pest or weed control at 200 ppm (Phakopsora pachyrhizi)

O=Cc1ccn(Cc2ccc(-c3noc(C(F)(F)F)n3)cc2)n1 [Compound 1.85, 1-[[4-[5-(trifluoromethyl)-1,2,4-oxadiazol-3-yl]phenyl]methyl]pyrazole-3-carbaldehyde]
≥ 80%: inhibition of growth at 20 ppm [1] | pest or weed control at 200 ppm [2] | pest or weed control at 200 ppm [3] | pest or weed control at 200 ppm (Phakopsora pachyrhizi)

FC(F)(F)c1nc(-c2ccc(Cn3cc4ccccc4n3)cc2)no1 [Compound 1.86, 3-[4-(indazol-2-ylmethyl)phenyl]-5-(trifluoromethyl)-1,2,4-oxadiazole]
≥ 80%: inhibition of growth at 20 ppm [1] | pest or weed control at 200 ppm [2] | pest or weed control at 200 ppm [3] | pest or weed control at 200 ppm (Phakopsora pachyrhizi)

FC(F)(F)c1nc(-c2ccc(Cn3ncc4ccccc43)cc2)no1 [Compound 1.87, 3-[4-(indazol-1-ylmethyl)phenyl]-5-(trifluoromethyl)-1,2,4-oxadiazole]
≥ 80%: inhibition of growth at 20 ppm [1] | pest or weed control at 200 ppm [2] | pest or weed control at 200 ppm [3] | pest or weed control at 200 ppm (Phakopsora pachyrhizi)

COC(=O)c1cn(Cc2ccc(-c3noc(C(F)(F)F)n3)cc2)cn1 [Compound 1.88, methyl 1-[[4-[5-(trifluoromethyl)-1,2,4-oxadiazol-3-yl]phenyl]methyl]imidazole-4-carboxylate]
≥ 80%: inhibition of growth at 20 ppm [1] | pest or weed control at 200 ppm [2] | pest or weed control at 200 ppm [3] | pest or weed control at 200 ppm (Phakopsora pachyrhizi)

FC(F)(F)c1cn(Cc2ccc(-c3noc(C(F)(F)F)n3)cc2)cn1 [Compound 1.90]
≥ 80%: inhibition of growth at 20 ppm [1] | pest or weed control at 200 ppm [2] | pest or weed control at 200 ppm [3] | pest or weed control at 200 ppm (Phakopsora pachyrhizi)

Cc1nc(Br)cn1Cc1ccc(-c2noc(C(F)(F)F)n2)cc1 [Compound 1.91, 3-[4-[(4-bromo-2-methyl-imidazol-1-yl)methyl]phenyl]-5-(trifluoromethyl)-1,2,4-oxadiazole]
≥ 80%: inhibition of growth at 20 ppm [1] | pest or weed control at 200 ppm [2] | pest or weed control at 200 ppm [3] | pest or weed control at 200 ppm (Phakopsora pachyrhizi)

Cc1cc(C#N)nn1Cc1ccc(-c2noc(C(F)(F)F)n2)cc1 [Compound 1.93, 5-methyl-1-[[4-[5-(trifluoromethyl)-1,2,4-oxadiazol-3-yl]phenyl]methyl]pyrazole-3-carbonitrile]
≥ 80%: inhibition of growth at 20 ppm [1] | pest or weed control at 200 ppm [2] | pest or weed control at 200 ppm [3] | pest or weed control at 200 ppm (Phakopsora pachyrhizi)

FC(F)(F)c1nc(-c2ccc(Cn3cnc(I)c3)cc2)no1 [Compound 1.96, 3-[4-[(4-iodoimidazol-1-yl)methyl]phenyl]-5-(trifluoromethyl)-1,2,4-oxadiazole]
≥ 80%: inhibition of growth at 20 ppm [1] | pest or weed control at 200 ppm [2] | pest or weed control at 200 ppm [3] | pest or weed control at 200 ppm (Phakopsora pachyrhizi)

Cc1cc(C)n(Cc2ccc(-c3noc(C(F)(F)F)n3)cc2F)n1 [Compound 1.102, 3-[4-[(3,5-dimethylpyrazol-1-yl)methyl]-3-fluoro-phenyl]-5-(trifluoromethyl)-1,2,4-oxadiazole]
≥ 80%: inhibition of growth at 20 ppm [1] | pest or weed control at 200 ppm [2] | pest or weed control at 200 ppm [3] | pest or weed control at 200 ppm (Phakopsora pachyrhizi)

Fc1cc(-c2noc(C(F)(F)F)n2)ccc1Cn1ccnc1 [Compound 1.129, 3-[3-fluoro-4-(imidazol-1-ylmethyl)phenyl]-5-(trifluoromethyl)-1,2,4-oxadiazole]
≥ 80%: inhibition of growth at 20 ppm [1] | pest or weed control at 200 ppm [2] | pest or weed control at 200 ppm [3] | pest or weed control at 200 ppm (Phakopsora pachyrhizi)

CC(=O)NCCc1cn(Cc2ccc(-c3noc(C(F)(F)F)n3)cc2)cn1 [Compound 1.156, N-[2-[1-[[4-[5-(trifluoromethyl)-1,2,4-oxadiazol-3-yl]phenyl]methyl]imidazol-4-yl]ethyl]acetamide]
≥ 80%: pest or weed control at 200 ppm [2] | pest or weed control at 200 ppm [3] | pest or weed control at 200 ppm (Phakopsora pachyrhizi)

N#Cc1nnn(Cc2ccc(-c3noc(C(F)(F)F)n3)cc2)c1-c1c(F)cccc1F [Compound 1.240, 5-(2,6-difluorophenyl)-1-[[4-[5-(trifluoromethyl)-1,2,4-oxadiazol-3-yl]phenyl]methyl]triazole-4-carbonitrile]
≥ 80%: inhibition of growth at 20 ppm [1] | pest or weed control at 200 ppm [2] | pest or weed control at 200 ppm (Phakopsora pachyrhizi)
